Laboratory results taken from patent publication US20220089575A1, “FARNESOID X RECEPTOR AGONISTS AND USES THEREOF” (Metacrine, Inc., priority 2017, published 2022).

Each molecule was assayed against T1, hFXR (Homo sapiens, UniProt Q96RI1) (assay: In Vitro FXR Assay (TK): TK-ECRE-luc reporter in transfected CV-1 cells). Details: 18 hrs, luminescence, maximum efficacy of <25% of the Fexarmine control classified as '+'.
T1 construct: expressed in transfected cells; host or cells: CV-1 cells
T1 sequence (Q96RI1 1-486): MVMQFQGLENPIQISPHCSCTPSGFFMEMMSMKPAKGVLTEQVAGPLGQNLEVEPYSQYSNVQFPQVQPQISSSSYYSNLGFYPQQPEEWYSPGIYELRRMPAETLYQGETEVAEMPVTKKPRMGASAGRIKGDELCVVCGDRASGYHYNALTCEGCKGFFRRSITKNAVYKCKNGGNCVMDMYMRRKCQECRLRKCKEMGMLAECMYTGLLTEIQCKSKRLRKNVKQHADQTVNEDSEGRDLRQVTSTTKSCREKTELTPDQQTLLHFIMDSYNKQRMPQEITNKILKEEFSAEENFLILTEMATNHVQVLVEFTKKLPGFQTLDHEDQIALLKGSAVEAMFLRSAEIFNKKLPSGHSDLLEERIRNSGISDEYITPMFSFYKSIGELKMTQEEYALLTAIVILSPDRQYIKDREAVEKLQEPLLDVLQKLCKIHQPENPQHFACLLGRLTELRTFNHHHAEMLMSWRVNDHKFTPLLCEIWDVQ
T1 sequence (P19793 1-462 partner): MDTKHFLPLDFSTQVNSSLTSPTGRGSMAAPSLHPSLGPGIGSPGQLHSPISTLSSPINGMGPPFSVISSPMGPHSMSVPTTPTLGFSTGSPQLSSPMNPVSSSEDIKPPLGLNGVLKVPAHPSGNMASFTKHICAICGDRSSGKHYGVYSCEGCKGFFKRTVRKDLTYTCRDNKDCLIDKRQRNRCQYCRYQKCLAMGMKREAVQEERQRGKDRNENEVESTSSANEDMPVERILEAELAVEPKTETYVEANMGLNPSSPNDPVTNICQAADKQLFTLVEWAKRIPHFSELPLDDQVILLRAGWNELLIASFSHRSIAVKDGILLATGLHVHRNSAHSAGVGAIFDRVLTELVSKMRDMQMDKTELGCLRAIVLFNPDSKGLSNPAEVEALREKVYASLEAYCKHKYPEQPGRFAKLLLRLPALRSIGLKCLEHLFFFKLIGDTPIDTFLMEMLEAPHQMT
Assay type: cell-based
Summary of the method: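 Luciferase luminescence read-out from lysed CV-1 cells transiently co-expressing hFXR and hRXR with a TK-ECRE-luc reporter (pCMX-YFP co-transfected). Compound exposure lasted 18 h at 37 °C, 5% CO2, in medium containing charcoal super-stripped serum.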

EC50, ≤ 250 nM:
COc1ccc([C@H]2CC[C@H](CN(c3cc(-c4cnn(C(C)C)c4)ccn3)C(=O)[C@H]3CC[C@H](OC(=O)NCCO)CC3)CC2)cc1C#N [Compound 6.22, trans-4-(((trans-4-(3-Cyano-4-methoxyphenyl)cyclohexyl)methyl)(4-(1-isopropyl-1H-pyrazol-4-yl)pyridin-2-yl)carbamoyl)cyclohexyl (2-hydroxyethyl)carbamate]
COc1ncc([C@H]2CC[C@H](CN(c3cccc(-c4cnn(C5CC5)c4)c3)C(=O)[C@H]3CC[C@H](OC(=O)NCCO)CC3)CC2)cc1Cl [Compound 6.23, trans-4-(((trans-4-(5-Chloro-6-methoxypyridin-3-yl)cyclohexyl)methyl) (3-(1-cyclopropyl-1H-pyrazol-4-yl)phenyl)carbamoyl)cyclohexyl (2-hydroxyethyl)carbamate]
COc1ccc([C@H]2CC[C@H](CN(c3cccc(-c4cnn(C5CC5)c4)c3)C(=O)[C@H]3CC[C@H](OC(=O)NC4COC4)CC3)CC2)cc1C [Compound 6.24, trans-4-((3-(1-Cyclopropyl-1H-pyrazol-4-yl)phenyl)((trans-4-(4-methoxy-3-methylphenyl)cyclohexyl)methyl)carbamoyl)cyclohexyl oxetan-3-ylcarbamate]
COc1ccc([C@H]2CC[C@H](CN(c3cccc(-c4cnn(C5CC5)c4)c3)C(=O)[C@H]3CC[C@H](OC(=O)N4CCN(C)CC4)CC3)CC2)cc1C [Compound 6.25, trans-4-((3-(1-Cyclopropyl-1H-pyrazol-4-yl)phenyl)((trans-4-(4-methoxy-3-methylphenyl)cyclohexyl)methyl)carbamoyl)cyclohexyl 4-methylpiperazine-1-carboxylate]
COCCN(C)C(=O)O[C@H]1CC[C@H](C(=O)N(C[C@H]2CC[C@H](c3ccc(OC)c(C)c3)CC2)c2cccc(-c3cnn(C4CC4)c3)c2)CC1 [Compound 6.26, trans-4-((3-(1-Cyclopropyl-1H-pyrazol-4-yl)phenyl)((trans-4-(4-methoxy-3-methylphenyl)cyclohexyl)methyl)carbamoyl)cyclohexyl (2-methoxyethyl) (methyl)carbamate]
COc1ccc([C@H]2CC[C@H](CN(c3cccc(-c4cnn(C5CC5)c4)c3)C(=O)[C@H]3CC[C@H](OC(=O)N4CCSCC4)CC3)CC2)cc1C [Compound 6.27, trans-4-((3-(1-Cyclopropyl-1H-pyrazol-4-yl)phenyl)((trans-4-(4-methoxy-3-methylphenyl)cyclohexyl)methyl)carbamoyl)cyclohexyl thiomorpholine-4-carboxylate]
COc1ccc([C@H]2CC[C@H](CN(c3cccc(-c4cnn(C5CC5)c4)c3)C(=O)[C@H]3CC[C@H](OC(=O)NCCO)CC3)CC2)nc1C#N [Compound 6.28, trans-4-(((trans-4-(6-Cyano-5-methoxypyridin-2-yl)cyclohexyl)methyl) (3-(1-cyclopropyl-1H-pyrazol-4-yl)phenyl)carbamoyl)cyclohexyl (2-hydroxyethyl)carbamate]
COc1ccc([C@H]2CC[C@H](CN(c3cccc(-c4cnn(C5CC5)c4)c3)C(=O)[C@H]3CC[C@H](OC(=O)N4CC(S(C)(=O)=O)C4)CC3)CC2)cc1C [Compound 6.29, trans-4-((3-(1-Cyclopropyl-1H-pyrazol-4-yl)phenyl)((trans-4-(4-methoxy-3-methylphenyl)cyclohexyl)methyl)carbamoyl)cyclohexyl 3-(methylsulfonyl)azetidine-1-carboxylate]
COc1ccc([C@H]2CC[C@H](CN(c3cccc(-c4cnn(C5CC5)c4)c3)C(=O)[C@H]3CC[C@H](OC(=O)N4CC(SC)C4)CC3)CC2)cc1C [Compound 6.30, trans-4-((3-(1-Cyclopropyl-1H-pyrazol-4-yl)phenyl)((trans-4-(4-methoxy-3-methylphenyl)cyclohexyl)methyl)carbamoyl)cyclohexyl 3-(methylthio) azetidine-1-carboxylate]
COc1ccc([C@H]2CC[C@H](CN(c3cc(-c4cnn(C(C)C)c4)ccn3)C(=O)[C@H]3CC[C@H](OC(=O)NC4CC4)CC3)CC2)nc1C [Compound 6.31, trans-4-((4-(1-Isopropyl-1H-pyrazol-4-yl)pyridin-2-yl)((trans-4-(5-methoxy-6-methylpyridin-2-yl)cyclohexyl)methyl)carbamoyl)cyclohexyl cyclopropylcarbamate]
COc1ccc([C@H]2CC[C@H](CN(c3cc(-c4cnn(C(C)C)c4)ccn3)C(=O)[C@H]3CC[C@H](OC(=O)NC(C)C)CC3)CC2)nc1C#N [Compound 6.32, trans-4-(((trans-4-(6-Cyano-5-methoxypyridin-2-yl)cyclohexyl)methyl) (4-(1-isopropyl-1H-pyrazol-4-yl)pyridin-2-yl)carbamoyl)cyclohexyl isopropylcarbamate]
COc1ccc([C@H]2CC[C@H](CN(c3cc(-c4cnn(C(C)C)c4)ccn3)C(=O)[C@H]3CC[C@H](OC(=O)NC4CC4)CC3)CC2)nc1C#N [Compound 6.33, trans-4-(((trans-4-(6-Cyano-5-methoxypyridin-2-yl)cyclohexyl)methyl) (4-(1-isopropyl-1H-pyrazol-4-yl)pyridin-2-yl)carbamoyl)cyclohexyl cyclopropylcarbamate]
COCCNC(=O)O[C@H]1CC[C@H](C(=O)N(C[C@H]2CC[C@H](c3ccc(OC)c(C#N)c3)CC2)c2cc(-c3cnn(C(C)C)c3)ccn2)CC1 [Compound 6.34, trans-4-(((trans-4-(3-Cyano-4-methoxyphenyl)cyclohexyl)methyl)(4-(1-isopropyl-1H-pyrazol-4-yl)pyridin-2-yl)carbamoyl)cyclohexyl (2-methoxyethyl)carbamate]
COc1ccc([C@H]2CC[C@H](CN(c3cc(-c4cnn(C(C)C)c4)ccn3)C(=O)[C@H]3CC[C@H](OC(=O)NC4CC4)CC3)CC2)cc1C#N [Compound 6.35, trans-4-(((trans-4-(3-Cyano-4-methoxyphenyl)cyclohexyl)methyl)(4-(1-isopropyl-1H-pyrazol-4-yl)pyridin-2-yl)carbamoyl)cyclohexyl cyclopropylcarbamate]
COc1ccc([C@H]2CC[C@H](CN(c3cc(-c4cnn(C(C)C)c4)ccn3)C(=O)[C@H]3CC[C@H](OC(=O)N4CC(S(C)(=O)=O)C4)CC3)CC2)cc1C#N [Compound 6.36, trans-4-(((trans-4-(3-Cyano-4-methoxyphenyl)cyclohexyl)methyl)(4-(1-isopropyl-1H-pyrazol-4-yl)pyridin-2-yl)carbamoyl)cyclohexyl 3-(methylsulfonyl)azetidine-1-carboxylate]
COc1ccc([C@H]2CC[C@H](CN(c3cc(-c4cnn(C(C)C)c4)ccn3)C(=O)[C@H]3CC[C@H](OC(=O)N4CCOCC4)CC3)CC2)cc1C#N [Compound 6.37, trans-4-(((trans-4-(3-Cyano-4-methoxyphenyl)cyclohexyl)methyl)(4-(1-isopropyl-1H-pyrazol-4-yl)pyridin-2-yl)carbamoyl)cyclohexyl morpholine-4-carboxylate]
COc1ccc([C@H]2CC[C@H](CN(c3cc(-c4cnn(C(C)C)c4)ccn3)C(=O)[C@H]3CC[C@H](OC(=O)N4CCN(C)CC4)CC3)CC2)cc1C#N [Compound 6.38, trans-4-(((trans-4-(3-Cyano-4-methoxyphenyl)cyclohexyl)methyl)(4-(1-isopropyl-1H-pyrazol-4-yl)pyridin-2-yl)carbamoyl)cyclohexyl 4-methylpiperazine-1-carboxylate]
COc1ccc([C@H]2CC[C@H](CN(c3cc(-c4cnn(C(C)C)c4)ccn3)C(=O)[C@H]3CC[C@H](OC(=O)N4CC(S(C)(=O)=O)C4)CC3)CC2)nc1C [Compound 6.39, trans-4-((4-(1-Isopropyl-1H-pyrazol-4-yl)pyridin-2-yl)((trans-4-(5-methoxy-6-methylpyridin-2-yl)cyclohexyl)methyl)carbamoyl)cyclohexyl 3-(methylsulfonyl)azetidine-1-carboxylate]
COc1ccc([C@H]2CC[C@H](CN(c3cc(-c4cnn(C(C)C)c4)ccn3)C(=O)[C@H]3CC[C@H](OC(=O)N4CCOCC4)CC3)CC2)nc1C [Compound 6.40, trans-4-((4-(1-Isopropyl-1H-pyrazol-4-yl)pyridin-2-yl)((trans-4-(5-methoxy-6-methylpyridin-2-yl)cyclohexyl)methyl)carbamoyl)cyclohexyl morpholine-4-carboxylate]
